Test results published in ChEMBL document CHEMBL5104121, “Stereoisomeric Pam2CS based TLR2 agonists: synthesis, structural modelling and activity as vaccine adjuvants” (RSC Med Chem, 2022).
Calls of active or inactive are those of the source. No cut-off for these calls is given here. Where a SMILES comes first, the peptide text is derived from it. The star is where a group is joined. Propyl(2R-PamO,3-PamO) = CCCCCCCCCCCCCCCC(=O)OC[C@H](C*)OC(=O)CCCCCCCCCCCCCCC; Palmitoyl = CCCCCCCCCCCCCCCC(=O)*

Columns and labels:
[1] = molecular target: T1, TLR2/TLR6 (Mus musculus) (UniProt Q9QUN7+Q9EPW9); experiment: Agonist activity at TLR2/TLR6 in C57BL/6 mouse spleen dendritic cells assessed as increase in CD40 expression at 10 to 0.1 ug/ml incubated for 24 hrs by fluorescence based flow cytometric analysis; format: tissue-based; settings: Dendritic cell, filed as agonist, dose 10-0.1 µg/ml
[2] = molecular target: T2, TLR2/TLR6 (Homo sapiens, UniProt O60603+Q9Y2C9); experiment: Agonist activity at TLR2/TLR6 in human PBMC cells assessed as increase in IL-10 production at 0.1 ug/ml incubated for 24 hrs; format: cell-based; settings: filed as agonist, dose 0.1 µg/ml
[3] = molecular target: T1, TLR2/TLR6 (Mus musculus); experiment: Agonist activity at TLR2/TLR6 in C57BL/6 mouse spleen dendritic cells assessed as increase in CD86 expression at 10 to 0.1 ug/ml incubated for 24 hrs by fluorescence based flow cytometric analysis; format: tissue-based; settings: Dendritic cell, filed as agonist, dose 10-0.1 µg/ml
[4] = molecular target: T2, TLR2/TLR6; experiment: Agonist activity at TLR2/TLR6 in human PBMC cells assessed as increase in TNF-alpha production at 0.1 ug/ml incubated for 24 hrs; format: cell-based; settings: filed as agonist, dose 0.1 µg/ml
[5] = molecular target: T2, TLR2/TLR6; experiment: Agonist activity at TLR2/TLR6 in human PBMC cells assessed as increase in IL-6 production at 0.1 ug/ml incubated for 24 hrs; format: cell-based; settings: filed as agonist, dose 0.1 µg/ml
[6] = system: Mus musculus; experiment: Immuno-adjuvant activity in C57BL/6 mouse immunized with recombinant hepatitis B surface antigen assessed as increase in anti-HBs antibody at 10 ug, IM administered twice 2 weeks apart by ELISA analysis; format: functional, organism-based; settings: dose 10.0 µg
[7] = molecular target: T1, TLR2/TLR6 (Mus musculus); experiment: Agonist activity at TLR2/TLR6 in C57BL/6 mouse spleen B cells assessed as increase in CD40 expression at 10 to 0.1 ug/ml incubated for 24 hrs by fluorescence based flow cytometric analysis; format: tissue-based; settings: B cell, filed as agonist, dose 10-0.1 µg/ml
[8] = molecular target: T2, TLR2/TLR6; experiment: Agonist activity at human TLR2/TLR6 expressed in HEK-Blue hTLR2-TLR6 cells by SEAP reporter gene based Quanti-blue assay; format: cell-based
[9] = molecular target: T1, TLR2/TLR6 (Mus musculus); experiment: Agonist activity at TLR2/TLR6 in C57BL/6 mouse spleen B cells assessed as increase in CD86 expression at 10 to 0.1 ug/ml incubated for 24 hrs by fluorescence based flow cytometric analysis; format: tissue-based; settings: B cell, filed as agonist, dose 10-0.1 µg/ml
[10] = molecular target: T1, TLR2/TLR6 (Mus musculus); experiment: Agonist activity at TLR2/TLR6 in C57BL/6 mouse spleen B cells assessed as increase in CD86 expression incubated for 24 hrs by fluorescence based flow cytometric analysis; format: tissue-based; settings: B cell, filed as agonist, dose 10-0.1 µg/ml, DDE = dose-dependent effect
[11] = molecular target: T1, TLR2/TLR6 (Mus musculus); experiment: Agonist activity at TLR2/TLR6 in C57BL/6 mouse spleen dendritic cells assessed as increase in CD86 expression incubated for 24 hrs by fluorescence based flow cytometric analysis; format: tissue-based; settings: Dendritic cell, filed as agonist, dose 10-0.1 µg/ml, DDE = dose-dependent effect
[12] = molecular target: T1, TLR2/TLR6 (Mus musculus); experiment: Agonist activity at TLR2/TLR6 in C57BL/6 mouse spleen B cells assessed as increase in CD40 expression incubated for 24 hrs by fluorescence based flow cytometric analysis; format: tissue-based; settings: B cell, filed as agonist, dose 10-0.1 µg/ml, DDE = dose-dependent effect
[13] = molecular target: T1, TLR2/TLR6 (Mus musculus); experiment: Agonist activity at TLR2/TLR6 in C57BL/6 mouse spleen dendritic cells assessed as increase in CD40 expression incubated for 24 hrs by fluorescence based flow cytometric analysis; format: tissue-based; settings: Dendritic cell, filed as agonist, dose 10-0.1 µg/ml, DDE = dose-dependent effect
[14] = system: Mus musculus; experiment: Protection against influenza A/California/04/2009 virus-challenged C57BL/6 mouse assessed as effect on survival at 10 ug, IM administered twice 2 weeks apart along with recombinant influenza A/California/04/2009 HA protein immunization; format: functional, organism-based; settings: dose 10.0 µg
[15] = system: Mus musculus; experiment: Protection against influenza A/California/04/2009 virus-challenged C57BL/6 mouse assessed as effect on body weight at 10 ug, IM administered twice 2 weeks apart along with recombinant influenza A/California/04/2009 HA protein immunization; format: functional, organism-based; settings: dose 10.0 µg
[16] = system: Mus musculus; experiment: Immuno-adjuvant activity in C57BL/6 mouse immunized with recombinant influenza A/California/04/2009 HA protein assessed as increase in anti-HAs antibody at 10 ug, IM administered twice 2 weeks apart by ELISA analysis; format: functional, organism-based; settings: dose 10.0 µg
[17] = system: Mus musculus; experiment: Immuno-adjuvant activity in C57BL/6 mouse immunized with recombinant hepatitis B surface antigen assessed as increase in IgG2/IgG1 ratio at 10 ug, IM administered twice 2 weeks apart by ELISA analysis; format: functional, organism-based; settings: dose 10.0 µg

T2 sequence (O60603 whole entry): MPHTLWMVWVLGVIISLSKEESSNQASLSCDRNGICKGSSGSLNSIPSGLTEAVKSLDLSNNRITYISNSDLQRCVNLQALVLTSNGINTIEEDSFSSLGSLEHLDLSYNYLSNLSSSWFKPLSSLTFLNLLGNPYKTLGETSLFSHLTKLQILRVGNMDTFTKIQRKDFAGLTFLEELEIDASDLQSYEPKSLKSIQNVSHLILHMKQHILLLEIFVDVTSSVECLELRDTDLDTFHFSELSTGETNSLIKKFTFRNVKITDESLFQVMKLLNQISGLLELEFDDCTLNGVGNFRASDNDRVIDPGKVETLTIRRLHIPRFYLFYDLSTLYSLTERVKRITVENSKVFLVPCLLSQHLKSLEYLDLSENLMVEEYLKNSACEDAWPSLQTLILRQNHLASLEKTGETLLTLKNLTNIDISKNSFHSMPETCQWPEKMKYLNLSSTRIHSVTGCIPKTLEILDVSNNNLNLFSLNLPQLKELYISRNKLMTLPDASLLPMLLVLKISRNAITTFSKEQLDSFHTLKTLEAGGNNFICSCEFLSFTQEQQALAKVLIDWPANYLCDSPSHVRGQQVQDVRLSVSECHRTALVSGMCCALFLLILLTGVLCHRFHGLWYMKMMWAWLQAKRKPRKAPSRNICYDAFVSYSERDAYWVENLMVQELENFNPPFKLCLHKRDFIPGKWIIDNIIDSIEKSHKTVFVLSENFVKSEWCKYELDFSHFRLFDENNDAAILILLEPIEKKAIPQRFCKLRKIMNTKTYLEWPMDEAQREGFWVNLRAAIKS
T2 sequence (Q9Y2C9 whole entry): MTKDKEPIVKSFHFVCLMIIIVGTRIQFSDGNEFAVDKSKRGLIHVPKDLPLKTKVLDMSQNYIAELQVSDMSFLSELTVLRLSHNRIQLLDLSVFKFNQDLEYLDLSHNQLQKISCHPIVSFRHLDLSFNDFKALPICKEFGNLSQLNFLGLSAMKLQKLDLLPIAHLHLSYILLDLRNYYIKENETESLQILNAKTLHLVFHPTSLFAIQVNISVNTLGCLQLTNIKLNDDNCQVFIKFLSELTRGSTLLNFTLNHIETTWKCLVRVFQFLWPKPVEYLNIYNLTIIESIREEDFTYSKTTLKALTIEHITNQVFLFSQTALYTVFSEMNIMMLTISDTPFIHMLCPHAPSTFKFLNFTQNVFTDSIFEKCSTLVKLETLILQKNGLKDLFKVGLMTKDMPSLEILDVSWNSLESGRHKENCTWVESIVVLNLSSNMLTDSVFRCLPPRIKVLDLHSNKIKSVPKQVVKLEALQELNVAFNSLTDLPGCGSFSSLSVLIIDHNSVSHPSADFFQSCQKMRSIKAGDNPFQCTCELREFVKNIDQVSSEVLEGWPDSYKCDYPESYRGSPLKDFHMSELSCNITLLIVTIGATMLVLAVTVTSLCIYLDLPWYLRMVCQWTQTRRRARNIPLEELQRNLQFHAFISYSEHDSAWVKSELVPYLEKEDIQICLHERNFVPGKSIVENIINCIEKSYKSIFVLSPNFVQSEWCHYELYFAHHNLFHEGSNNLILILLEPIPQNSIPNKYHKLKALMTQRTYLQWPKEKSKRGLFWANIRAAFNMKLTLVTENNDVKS

Structure (SMILES) | Activity [2] | Activity [4] | Activity [5] | Activity [6] | EC50 [8] [nM] | further results
CCCCCCCCCCCCCCCC(=O)OC[C@H](CSC[C@H](N)C(=O)N[C@@H](CO)C(=O)N[C@@H](CCCCN)C(=O)N[C@@H](CCCCN)C(=O)N[C@@H](CCCCN)C(=O)N[C@@H](CCCCN)C(=O)O)OC(=O)CCCCCCCCCCCCCCC (H-C(Propyl(2R-PamO,3-PamO))SKKKK-OH) | Active | Active | Active | Active | 0.3 | Activity [1]: Active; Activity [3]: Active; Activity [7]: Active; Activity [9]: Active
CCCCCCCCCCCCCCCC(=O)OC[C@H](CSC[C@H](NC(=O)OC(C)(C)C)C(=O)N[C@@H](COC(C)(C)C)C(=O)OC)OC(=O)CCCCCCCCCCCCCCC |  |  |  |  | 5870 | Activity [3]: Active; Activity [9]: Active
CCCCCCCCCCCCCCCC(=O)OC[C@@H](CSC[C@H](N)C(=O)N[C@@H](CO)C(=O)OC)OC(=O)CCCCCCCCCCCCCCC |  |  |  |  | 134 | Activity [10]: Dde; Activity [11]: Dde; Activity [12]: Dde; Activity [13]: Dde
CCCCCCCCCCCCCCCC(=O)OCC(CSC[C@H](N)C(=O)N[C@@H](CO)C(=O)OC)OC(=O)CCCCCCCCCCCCCCC (mixture of isomers) | Active | Active | Active |  | 1 | Activity [14]: Active; Activity [15]: Active; Activity [16]: Active
CCCCCCCCCCCCCCCC(=O)OC[C@@H](CSC[C@H](NC(=O)OC(C)(C)C)C(=O)N[C@@H](COC(C)(C)C)C(=O)OC)OC(=O)CCCCCCCCCCCCCCC |  |  |  |  | 4270 | 
CCCCCCCCCCCCCCCC(=O)N[C@@H](CSC[C@@H](COC(=O)CCCCCCCCCCCCCCC)OC(=O)CCCCCCCCCCCCCCC)C(=O)N[C@@H](CO)C(=O)N[C@@H](CCCCN)C(=O)N[C@@H](CCCCN)C(=O)N[C@@H](CCCCN)C(=O)N[C@@H](CCCCN)C(=O)O (Palmitoyl-C(Propyl(2R-PamO,3-PamO))SKKKK-OH) | Active | Active | Active | Active | 19.3 | Activity [1]: Active; Activity [3]: Active; Activity [7]: Active; Activity [9]: Active
CCCCCCCCCCCCCCCC(=O)OCC(CSC[C@H](NC(C)=O)C(=O)N[C@@H](CO)C(=O)OC)OC(=O)CCCCCCCCCCCCCCC (mixture of isomers) | Active | Active | Active |  | 5 | 
CCCCCCCCCCCCCCCC(=O)OCC(CSC[C@H](NC(=O)OC(C)(C)C)C(=O)N[C@@H](COC(C)(C)C)C(=O)OC)OC(=O)CCCCCCCCCCCCCCC (mixture of isomers) |  |  |  |  | 5640 | 
CCCCCCCCCCCCCCCC(=O)OC[C@H](CSC[C@H](N)C(=O)N[C@@H](CO)C(=O)OC)OC(=O)CCCCCCCCCCCCCCC | Active | Active | Active | Active | 0.4 | Activity [10]: Dde; Activity [11]: Dde; Activity [14]: Active; Activity [12]: Dde; Activity [15]: Active; Activity [17]: Active; Activity [16]: Active; Activity [13]: Dde
CCCCCCCCCCCCCCCC(=O)OC[C@@H](CSC[C@H](NC(C)=O)C(=O)N[C@@H](CO)C(=O)OC)OC(=O)CCCCCCCCCCCCCCC | Active | Active | Active |  | 252 | 
CCCCCCCCCCCCCCCC(=O)OC[C@H](CSC[C@H](NC(C)=O)C(=O)N[C@@H](CO)C(=O)OC)OC(=O)CCCCCCCCCCCCCCC | Active | Active | Active | Active | 0.8 | Activity [14]: Active; Activity [15]: Active; Activity [17]: Active; Activity [16]: Active
